Test results reported in patent US20130137776A1, “METHOD FOR INHIBITING HISTONE GENE TRANSCRIPTION AND EXPRESSION” (CHINA MEDICAL UNIVERSITY, priority 2011, published 2013).

Tests used:
[1] = system: histone gene transcription of the HSC-3 cancer cell line; experiment: Microarray analysis of gene expression in hinokitiol-treated HSC-3 cells; assay type: cell-based; conditions: 6.25 μM or 12.5 μM hinokitiol, 24 hours, Affymetrix Human Gene 1.0 ST microarray
Method: (1) Cell Culture and RNA Collection
Human oral squamous-cell carcinoma (OSCC) cell lines, such as HSC-3 (JCRB0623, Japan), was cultured. The relative culture methods can be seen in Shieh, T. M. et al., Association of expression aberrances and genetic polymorphisms of lysyl oxidase with areca-associated oral tumorigenesis. Clin Cancer Res, 2007. 13(15 Pt 1): p. 4378-85; Chen, J. C. et al., Gypenosides induced G0/G1 arrest via CHk2 and apoptosis through endoplasmic reticulum stress and mitochondria-dependent pathways in human tongue cancer SCC-4 cells. Oral Oncol, 2009. 45(3): p. 273-83; and Lin, C. C. et al., Berberine induces apoptosis in human HSC-3 oral cancer cells via simultaneous activation of the death receptor-mediated and mitochondrial pathway. Anticancer Res, 2007. 27(5A): p. 3371-8, which are entirely incorporated hereinto by reference.
Then, the HSC-3 cell lines were divided into four groups: two groups of the cells were not treated by hinokitiol (0 μM); one group of the cells was treated by 6.25 μM hinokitiol (commercially purchased from Sigma-Aldrich company); and one group of the cells was treated by 12.5 μM hinokitiol. […] The content and purity of the obtained RNA were respectively determined at wavelengths of 260 nm and 280 nm by using a micro-volume spectrophotometer (Nanodrop ND-1000, commercially purchased from Labtech. International company). […]

[2] = system: histone H2B and H3 gene expression in HSC-3 cell line; experiment: Reverse transcription-PCR of histone H2B and H3 gene expression; assay type: cell-based, human; conditions: 6.25 μM, 24 hours, GAPDH internal control
Method: HSC-3 cell lines were cultured and respectively treated by 0 μM and 6.25 μM hinokitiol for 24 hours. Then, the cells were scratched from the cell culture dishes and collected by centrifugation. Afterwards, reverse transcription-PCR (RT-PCR) was performed. The protocols and conditions related to RT-PCR can be seen in Shieh, T. M. et al., Association of expression aberrances and genetic polymorphisms of lysyl oxidase with areca-associated oral tumorigenesis. Clin Cancer Res, 2007. 13 (15 Pt1), p. 4378-85; and Shieh, T. M. et al., Association between the polymorphisms in exon 12 of hypoxia-inducible factor-1alpha and the clinicopathological features of oral squamous cell carcinoma. Oral Oncol, 2010. 46 (9), p. e47-53, which are entirely incorporated hereinto by reference.
The gene expression level of Glyceraldehyde-3-phosphate dehydrogenase (GAPDH) was used as an internal control. The variation of the gene expression level of histone H2B and H3 in HSC3 cell lines treated by hinokitiol was compared with the control group, and the results are shown in FIG. 2. At least two independent RT-PCR experiments were performed to validate the reproducibility of the analysis.

[3] = system: histone H3 expression in HSC-3 cancer cell line; experiment: Western blotting analysis of histone H3, HSC-3 cancer cell line; assay type: cell-based, human; conditions: 6.25 μM and 12.5 μM, 24 hours, actin internal control
Method: (§1) Normal human oral keratinocyte cell lines (OK, obtained from China Medical University Hospital, Taiwan), HSC-3 cancer cell lines, and SAS cancer cell lines (OSCC cancer cell line, obtained from the tongue tissue of a patient in National Yang Ming University, Taiwan) were cultured (the protocols related to cell culture can be seen in Lu, S. Y. et al., Ripe areca nut extract induces G1 phase arrests and senescence-associated phenotypes in normal human oral keratinocyte. Carcinogenesis, 2006. 27 (6), p. 1273-84; and Shieh, T. M. et al., Association of expression aberrances and genetic polymorphisms of lysyl oxidase with areca-associated oral tumorigenesis. Clin Cancer Res, 2007. 13 (15 Pt 1), p. 4378-85, which are entirely incorporated hereinto by reference). The cells were respectively treated by 0 μM, 6.25 μM, and 12.5 μM hinokitiol for 24 hours, and scratched from the cell culture dishes and collected by centrifugation. Then, western blotting analysis was performed (see Lu, S. Y. et al., Ripe areca nut extract induces G1 phase arrests and senescence-associated phenotypes in normal human oral keratinocyte. Carcinogenesis, 2006. 27 (6), p. 1273-84, which is entirely incorporated hereinto by reference). […]

[4] = system: histone H3 expression in SAS cancer cell line; experiment: Western blotting analysis of histone H3, SAS cancer cell line; assay type: cell-based, human; conditions: 6.25 μM and 12.5 μM, 24 hours, actin internal control
Method: as §1

[5] = system: histone H3 expression in normal human oral keratinocyte cell line (OK); experiment: Western blotting analysis of histone H3, normal human oral keratinocyte cell line; assay type: cell-based; conditions: 6.25 μM and 12.5 μM, 24 hours, actin internal control
Method: as §1

HSC-3 cells = experiment: Cell cycle analysis by flow cytometry (PI staining); assay type: cell-based, human; conditions: 24 hours, 0 μM control 31.38%
Method: HSC-3 cells (2×10^5/4 ml) were respectively treated by 0 μM, 3.12 μM, and 6.25 μM hinokitiol for 24 hours, washed by an ice-cold PBS buffer solution twice, and fixed in 70% ice-cold ethanol at 4° C. for 4 hours. Then, the cells were stained by propidium iodide (PI), and a cell cycle analysis was performed by using a BD FACSAria flow cytometer (commercially purchased from Becton Dickinson, Germany). The obtained data was analyzed by MULTICycle Software (commercially purchased from Coulter company, U.S.A.).

[6] = compound of formula (I) and its salts; cited from Imai et al. 2006 and Ema et al. 2004 (rats); cited from earlier work

In the case of `CC(C)c1cccc(O)c(=O)c1` [hinokitiol], the “expression of histone genes (H1d, H3g, H3j, H3a, H3h, H2bm, H2bg, H3l, H2bf, H2a) vs untreated control” value [1] is reported as “decreased by above two-fold”, the “gene expression level of histone H2B” value [2] is reported as “decreased” and the “gene expression level of histone H3” value [2] is reported as “decreased”. The “expression level of histone H3” value [3] was “significantly decreased”, the “expression level of histone H3” value [4] was “significantly decreased” and the “expression level of histone H3” value [5] was “not affected”. The “proportion of the cells in the synthesis phase (S phase)” value (HSC-3 cells; 3.125 μM hinokitiol) was 41.19%, the “proportion of the cells in the synthesis phase (S phase)” value (HSC-3 cells; 6.25 μM hinokitiol) was 43.89% and the biological toxicity [6] was “low biological toxicity”.
